Measurements: ChEMBL document CHEMBL3351946, “Design and synthesis of potent antitumor water-soluble phenyl N-mustard-benzenealkylamide conjugates via a bioisostere approach” (Eur J Med Chem, 2014)
pIC50: −log10 of the molar value.

Legend:
CCRF-CEM [1] = experiment: Cytotoxicity against human CCRF-CEM cells assessed as growth inhibition after 72 hrs by Alamar Blue assay; assay type: functional, cell-based
CCRF-CEM [2] = experiment: Cytotoxicity against vinblastine-resistant human CCRF-CEM cells assessed as growth inhibition after 72 hrs by Alamar Blue assay; assay type: functional, cell-based
[3] = Cytotoxicity against human PC3 cells assessed as growth inhibition after 72 hrs by Alamar Blue assay; assay type: functional, cell-based; conditions: PC-3, 72 h
[4] = Cytotoxicity against human H460 cells assessed as growth inhibition after 72 hrs by Alamar Blue assay; assay type: functional, cell-based; conditions: NCI-H460, 72 h
[5] = Cytotoxicity against human H1299 cells assessed as growth inhibition after 72 hrs by Alamar Blue assay; assay type: functional, cell-based; conditions: NCI-H1299, 72 h
[6] = Cytotoxicity against human HCT116 cells assessed as growth inhibition after 72 hrs by Alamar Blue assay; assay type: functional, cell-based; conditions: HCT-116, 72 h
CCRF-CEM [7] = experiment: Resistance factor, ratio of IC50 for vinblastine-resistant human CCRF-CEM cells to IC50 for human CCRF-CEM cells; assay type: functional
HT-29 = experiment: Cytotoxicity against human HT-29 cells assessed as growth inhibition after 72 hrs by Alamar Blue assay; assay type: functional, cell-based; conditions: HT-29, 72 h
[8] = Cytotoxicity against human H3347 cells assessed as growth inhibition after 72 hrs by Alamar Blue assay; assay type: functional, cell-based; conditions: H3347, 72 h
[9] = Cytotoxicity against human DLD1 cells assessed as growth inhibition after 72 hrs by Alamar Blue assay; assay type: functional, cell-based; conditions: DLD-1, 72 h

SMILES | pIC50 (CCRF-CEM [1]) | pIC50 (CCRF-CEM [2]) | pIC50 [3] | pIC50 [4] | pIC50 [5] | pIC50 [6] | Ratio IC50 (CCRF-CEM [7]) | pIC50 (HT-29) | pIC50 [8] | pIC50 [9]
O=C(Nc1ccc(C(=O)NCCN2CCCCC2)cc1)Nc1ccc(N(CCCl)CCCl)cc1 | 6.37 | 4.31 | 5.37 | 5.03 | 5.12 | 5.28 | 113.58 |  |  | 
CCN(CC)CC(=O)Nc1cccc(NC(=O)Nc2ccc(N(CCCl)CCCl)cc2)c1 | 5.70 | 5.86 | 4.89 | 5.25 | 4.93 | 5.34 | 0.69 |  |  | 
O=c1[nH]cc(F)c(=O)[nH]1 [FLUOROURACIL] |  |  |  |  |  |  |  | 4.60 | 4.93 | 4.54
O=C(CCN1CCCCC1)Nc1cccc(NC(=O)Nc2ccc(N(CCCl)CCCl)cc2)c1 | 6.41 | 5.22 | 5.24 | 5.10 | 5.33 | 5.45 | 15.41 |  |  | 
O=C(CCN1CCCC1)Nc1cccc(NC(=O)Nc2ccc(N(CCCl)CCCl)cc2)c1 | 6.17 | 4.57 | 4.99 | 5.01 | 5.36 | 5.29 | 40.42 |  |  | 
O=C(CCN1CCCCC1)Nc1ccc(NC(=O)Nc2ccc(N(CCCl)CCCl)cc2)cc1 |  | 5.21 | 5.64 | 5.80 | 5.52 | 5.62 |  | 4.91 | 5.62 | 5.19
O=C(Nc1ccc(C(=O)NCCN2CCCC2)cc1)Nc1ccc(N(CCCl)CCCl)cc1 | 6.25 | 3.88 | 5.34 | 4.75 | 4.73 | 5.19 | 237.2 |  |  | 
O=C(CN1CCCCC1)Nc1ccc(NC(=O)Nc2ccc(N(CCCl)CCCl)cc2)cc1 | 6.51 | 5.84 | 5.65 | 5.98 | 5.60 | 6.00 | 4.68 | 4.93 | 5.94 | 5.34
O=C(CCN1CCCC1)Nc1ccc(NC(=O)Nc2ccc(N(CCCl)CCCl)cc2)cc1 | 6.55 | 4.77 | 5.46 | 5.99 | 5.19 | 5.54 | 61.14 | 4.85 | 5.43 | 4.86
CN(C)CCC(=O)Nc1cccc(NC(=O)Nc2ccc(N(CCCl)CCCl)cc2)c1 | 6.28 | 4.84 | 4.87 | 4.77 | 5.05 | 5.48 | 27.67 |  |  | 
O=C(CCN1CCOCC1)Nc1ccc(NC(=O)Nc2ccc(N(CCCl)CCCl)cc2)cc1 | 5.97 | 4.63 | 5.01 | 5.40 | 4.82 | 5.15 | 22.09 |  |  | 
O=C(CN1CCCC1)Nc1ccc(NC(=O)Nc2ccc(N(CCCl)CCCl)cc2)cc1 | 6.59 | 5.70 | 5.45 | 6.02 | 5.47 | 5.88 | 7.69 | 4.91 | 5.82 | 5.36
O=C(CN1CCC(N2CCCCC2)CC1)Nc1ccc(NC(=O)Nc2ccc(N(CCCl)CCCl)cc2)cc1 | 5.94 | 4.28 | 5.14 | 4.83 | 4.84 | 5.37 | 45.8 |  |  | 
O=C(CN1CCCCC1)Nc1cccc(NC(=O)Nc2ccc(N(CCCl)CCCl)cc2)c1 | 5.87 | 5.88 | 5.00 | 5.25 | 5.07 | 5.12 | 0.99 |  |  | 
CN(C)CCC(=O)Nc1ccc(NC(=O)Nc2ccc(N(CCCl)CCCl)cc2)cc1 |  |  |  |  |  |  |  | 4.63 | 5.54 | 5.01
O=C(CN1CCCC1)Nc1cccc(NC(=O)Nc2ccc(N(CCCl)CCCl)cc2)c1 | 5.47 | 6.01 | 4.89 | 5.18 | 5.03 | 5.27 | 0.28 |  |  | 
O=C(Nc1ccc(N(CCCl)CCCl)cc1)Nc1cccc(C(=O)NCCN2CCCC2)c1 | 6.28 | 3.90 | 5.18 | 4.47 | 4.73 | 5.31 | 238.42 |  |  | 
O=C(CN1CCOCC1)Nc1cccc(NC(=O)Nc2ccc(N(CCCl)CCCl)cc2)c1 | 5.41 | 5.88 | 4.45 | 4.71 | 4.58 | 4.89 | 0.34 |  |  | 
O=C(Nc1ccc(N(CCCl)CCCl)cc1)Nc1cccc(C(=O)NCCN2CCCCC2)c1 | 6.24 | 4.55 | 5.34 | 4.89 | 4.99 | 5.26 | 49.91 |  |  | 
O=C(CCN1CCOCC1)Nc1cccc(NC(=O)Nc2ccc(N(CCCl)CCCl)cc2)c1 | 5.51 | 5.32 | 4.45 | 4.41 | 4.80 | 4.78 | 1.56 |  |  | 
CC[C@]1(O)C[C@@H]2CN(CCc3c([nH]c4ccccc34)[C@@](C(=O)OC)(c3cc4c(cc3OC)N(C)[C@H]3[C@@](O)(C(=O)OC)[C@H](OC(C)=O)[C@]5(CC)C=CCN6CC[C@]43[C@@H]65)C2)C1 [VINBLASTINE] | 8.89 | 6.17 |  |  |  |  |  |  |  | 
O=C(CN1CCOCC1)Nc1ccc(NC(=O)Nc2ccc(N(CCCl)CCCl)cc2)cc1 | 5.95 | 4.74 | 4.80 | 5.32 | 4.73 | 5.18 | 16.27 |  |  | 
O=C(CCN1CCC(N2CCCCC2)CC1)Nc1cccc(NC(=O)Nc2ccc(N(CCCl)CCCl)cc2)c1 | 5.79 | 5.82 | 4.66 | 4.85 | 4.96 | 4.81 | 0.94 |  |  | 
O=C(CCN1CCC(N2CCCCC2)CC1)Nc1ccc(NC(=O)Nc2ccc(N(CCCl)CCCl)cc2)cc1 | 6.14 | 3.92 | 4.52 | 4.84 | 4.44 | 4.96 | 166.17 |  |  | 
O=C(CN1CCC(N2CCCCC2)CC1)Nc1cccc(NC(=O)Nc2ccc(N(CCCl)CCCl)cc2)c1 | 4.52 | 5.74 | 4.59 | 4.91 | 4.89 | 5.21 | 0.06 |  |  | 
CC[C@]1(O)C[C@H]2CN(CCc3c([nH]c4ccccc34)[C@@](C(=O)OC)(c3cc4c(cc3OC)N(C=O)[C@H]3[C@@](O)(C(=O)OC)[C@H](OC(C)=O)[C@]5(CC)C=CCN6CC[C@]43[C@@H]65)C2)C1 [VINCRISTINE] | 8.63 | 5.67 |  |  |  |  |  |  |  | 
CN(C)CCNC(=O)c1ccc(NC(=O)Nc2ccc(N(CCCl)CCCl)cc2)cc1 | 6.24 | 3.97 | 5.20 | 4.50 | 4.50 | 5.25 | 186.47 |  |  | 
CCN(CC)CCC(=O)Nc1ccc(NC(=O)Nc2ccc(N(CCCl)CCCl)cc2)cc1 | 6.52 | 5.08 | 5.61 | 5.74 | 4.99 | 5.51 | 27.57 | 4.71 | 5.99 | 5.11
CN(C)CC(=O)Nc1cccc(NC(=O)Nc2ccc(N(CCCl)CCCl)cc2)c1 | 6.11 | 5.57 | 4.72 | 5.06 | 4.97 | 5.02 | 3.46 |  |  | 
CCN(CC)CCC(=O)Nc1cccc(NC(=O)Nc2ccc(N(CCCl)CCCl)cc2)c1 | 6.07 | 4.88 | 4.89 | 5.17 | 5.24 | 5.49 | 15.62 |  |  | 
